The values below come from ChEMBL document CHEMBL1126639, “Centrally acting serotonergic and dopaminergic agents. 2. Synthesis and structure-activity relationships of 2,3,3a,4,9,9a-hexahydro-1H-benz[f]indole derivatives” (J Med Chem, 1993).

Experiment [1] concerns the target T1, D(2) dopamine receptor (Rattus norvegicus, UniProt P61169). In words: Binding affinity for [3H]raclopride-labeled dopamine receptor D2 in rat striatum. The experiment is classed as tissue-based.
Experiment [2] deals with T2, D(2) dopamine receptor (Homo sapiens, UniProt P14416). In words: Intrinsic activity from GTP shift using CHO cell membranes expressing dopamine receptor D2. It is filed as functional.
T2 sequence (P14416 whole entry): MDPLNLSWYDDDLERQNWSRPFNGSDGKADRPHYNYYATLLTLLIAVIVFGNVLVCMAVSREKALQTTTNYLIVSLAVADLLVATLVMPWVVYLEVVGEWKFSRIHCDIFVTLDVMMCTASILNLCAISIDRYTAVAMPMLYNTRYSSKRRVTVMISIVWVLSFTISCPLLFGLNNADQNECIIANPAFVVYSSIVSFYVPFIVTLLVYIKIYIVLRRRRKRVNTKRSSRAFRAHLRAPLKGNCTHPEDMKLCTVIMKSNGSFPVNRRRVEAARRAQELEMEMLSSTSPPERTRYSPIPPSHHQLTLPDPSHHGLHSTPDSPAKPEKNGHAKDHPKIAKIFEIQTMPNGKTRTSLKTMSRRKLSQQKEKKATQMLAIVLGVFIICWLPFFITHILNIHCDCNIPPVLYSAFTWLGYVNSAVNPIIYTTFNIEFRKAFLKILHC
Experiment [3] addresses T2, D(2) dopamine receptor. As to the kind of experiment: Binding affinity against [3H]U-86,170-labeled dopamine receptor D2 in cloned CHO cells. It is filed as cell-based.
The subject of experiment [4] is Mus musculus. In words: Antagonism of apomorphine for 0-10 minutes in reserpinized mice when a dose of 0.4 micro mol/kg is administered intraperitoneally. The experiment is classed as functional.
Experiment [5] relates to Mus musculus. In words: Antagonism of apomorphine for 0-10 minutes in reserpinized mice when a dose of 3.7 micro mol/kg is administered intraperitoneally. The experiment is classed as functional.
Experiment [6] deals with Mus musculus. As to the kind of experiment: Antagonism of apomorphine for 0-10 minutes in reserpinized mice when a dose of 37 micro mol/kg is administered intraperitoneally. It is filed as functional.
The subject of experiment [7] is Mus musculus. As to the kind of experiment: Antagonism of apomorphine for 10-20 minutes in reserpinized mice when a dose of 0.4 micro mol/kg is administered intraperitoneally. It is filed as functional.
Experiment [8] has as its system Mus musculus. In words: Antagonism of apomorphine for 10-20 minutes in reserpinized mice when a dose of 3.7 micro mol/kg is administered intraperitoneally. The experiment is classed as functional.
In experiment [9] the test system is Mus musculus. In words: Ability to stimulate dopaminergic systems by effect on locomotor activity in reserpinized mice when a dose of 3.7 micro mol/kg is administered intraperitoneally. It is filed as functional.
In experiment [10] the test system is Mus musculus. As to the kind of experiment: Ability to stimulate dopaminergic systems by effect on locomotor activity in reserpinized mice when a dose of 37 micro mol/kg is administered intraperitoneally. The experiment is classed as functional.
In experiment [11] the test system is Mus musculus. As to the kind of experiment: Ability to stimulate dopaminergic systems by effect on locomotor activity in reserpinized mice when a dose of 0.4 micro mol/kg is administered intraperitoneally. The experiment is classed as functional.
Experiment [12] has as its system Mus musculus. As to the kind of experiment: Antagonism of apomorphine in reserpinized mice when a dose of 37 micro mol/kg is administered intraperitoneally. The experiment is classed as functional.
Experiment [13] concerns Mus musculus. In words: Antagonism of apomorphine for 10-20 minutes in reserpinized mice when a dose of 37 micro mol/kg is administered intraperitoneally. It is filed as functional.
Experiment [14] relates to Mus musculus. In words: Antagonism of apomorphine in reserpinized mice when a dose of 0.4 micro mol/kg is administered intraperitoneally. It is filed as functional.
Experiment [15] deals with Mus musculus. In words: Antagonism of apomorphine in reserpinized mice when a dose of 3.7 micro mol/kg is administered intraperitoneally. It is filed as functional.
The next experiment relates to Rattus norvegicus. As to the kind of experiment: Inhibition of firing rates of dopaminergic neurons in the substantia nigra pars compacta by intravenous injection in rats. The experiment is classed as functional.
For experiment [16], the target named is T1, D(2) dopamine receptor. As to the kind of experiment: Inhibitory concentration against [3H]raclopride-labeled dopamine receptor D2 in rat striatum. The experiment is classed as tissue-based.
The species entered for experiment [17] is Mus musculus. In words: Time of effect in the face-to-face behavioral assay in the mouse […]. It is filed as functional.
The test system of experiment [18] is Mus musculus. In words: Time of effect in the face-to-face behavioral assay in the mouse when a dose of 5.4 micro mol/kg is administered subcutaneously. The experiment is classed as functional.
Experiment [19] has as its system Mus musculus. As to the kind of experiment: Time of effect in the face-to-face behavioral assay in the mouse when a dose of 54 micro mol/kg is administered subcutaneously. It is filed as functional.
In experiment [20] the target is T1, D(2) dopamine receptor. As to the kind of experiment: Compound was evaluated for the binding affinity against [3H]raclopride-labeled dopamine receptor D2 in rat striatum. The experiment is classed as tissue-based.
The test system of experiment [21] is Mus musculus. As to the kind of experiment: Effective dose on hypothermia in mouse when administered subcutaneously. It is filed as functional. The note with it: Mus musculus, sc; read-out: ED50.
Experiment [22] has as its system Mus musculus. As to the kind of experiment: Effective dose on hypothermia in mouse when administered through peroral route. The note with it: Mus musculus, po; read-out: ED50. The experiment is classed as functional.
Experiment [23] has as its system Mus musculus. In words: Time of effect in the face-to-face behavioral assay in the mouse when a dose of 34 micro mol/kg is administered perorally. It is filed as functional.
Experiment [24] has as its system Mus musculus. As to the kind of experiment: Time of effect in the face-to-face behavioral assay in the mouse when a dose of 0.0 micro mol/kg is administered perorally. It is filed as functional.
Experiment [25] has as its system Mus musculus. As to the kind of experiment: Time of effect in the face-to-face behavioral assay in the mouse when a dose of 0.3 micro mol/kg is administered perorally. The experiment is classed as functional.
Experiment [26] deals with Mus musculus. As to the kind of experiment: Time of effect in the isolation-induced aggression behavioral assay in the mouse when a dose of 10 micro mol/kg is administered perorally. The experiment is classed as functional.
The test system of experiment [27] is Mus musculus. As to the kind of experiment: Maximum decrease in temperature when compound is administered subcutaneously. It is filed as functional.
For experiment [28], the system named is Mus musculus. As to the kind of experiment: Maximum decrease in temperature when compound is administered through peroral route. It is filed as functional.
In experiment [29] the test system is Mus musculus. As to the kind of experiment: Time of effect in the isolation-induced aggression behavioral assay in the mouse when a dose of 3.4 micro mol/kg is administered perorally. The experiment is classed as functional.
The test system of experiment [30] is Mus musculus. In words: Time of effect in the face-to-face behavioral assay in the mouse when a dose of 3.4 micro mol/kg is administered perorally. It is filed as functional.
The test system of experiment [31] is Mus musculus. In words: Antagonism of apomorphine for 0-10 minutes in reserpinized mice when a dose of 3.6 micro mol/kg is administered intraperitoneally. The experiment is classed as functional.
The subject of experiment [32] is Mus musculus. As to the kind of experiment: Antagonism of apomorphine for 0-10 minutes in reserpinized mice when a dose of 36 micro mol/kg is administered intraperitoneally. It is filed as functional.
Experiment [33] concerns Mus musculus. As to the kind of experiment: Antagonism of apomorphine for 10-20 minutes in reserpinized mice when a dose of 3.6 micro mol/kg is administered intraperitoneally. The experiment is classed as functional.
Experiment [34] deals with Mus musculus. As to the kind of experiment: Ability to stimulate dopaminergic systems by effect on locomotor activity in reserpinized mice when a dose of 3.6 micro mol/kg is administered intraperitoneally. The experiment is classed as functional.
The subject of experiment [35] is Mus musculus. As to the kind of experiment: Ability to stimulate dopaminergic systems by effect on locomotor activity in reserpinized mice when a dose of 36 micro mol/kg is administered intraperitoneally. The experiment is classed as functional.
For experiment [36], the system named is Mus musculus. As to the kind of experiment: Antagonism of apomorphine in reserpinized mice when a dose of 36 micro mol/kg is administered intraperitoneally. The experiment is classed as functional.
Experiment [37] concerns Mus musculus. As to the kind of experiment: Antagonism of apomorphine for 10-20 minutes in reserpinized mice when a dose of 36 micro mol/kg is administered intraperitoneally. The experiment is classed as functional.
In experiment [38] the test system is Mus musculus. In words: Antagonism of apomorphine in reserpinized mice when a dose of 3.6 micro mol/kg is administered intraperitoneally. It is filed as functional.

The term Ki denotes a dissociation constant, usually derived from enzyme kinetics or from competition with a known ligand. Read a high Ki as weaker binding. Broadly, the ED50 is the midpoint of the dose-response relation. The term IC50 denotes the concentration needed to halve the response being measured.

T1 sequence (P61169 whole entry): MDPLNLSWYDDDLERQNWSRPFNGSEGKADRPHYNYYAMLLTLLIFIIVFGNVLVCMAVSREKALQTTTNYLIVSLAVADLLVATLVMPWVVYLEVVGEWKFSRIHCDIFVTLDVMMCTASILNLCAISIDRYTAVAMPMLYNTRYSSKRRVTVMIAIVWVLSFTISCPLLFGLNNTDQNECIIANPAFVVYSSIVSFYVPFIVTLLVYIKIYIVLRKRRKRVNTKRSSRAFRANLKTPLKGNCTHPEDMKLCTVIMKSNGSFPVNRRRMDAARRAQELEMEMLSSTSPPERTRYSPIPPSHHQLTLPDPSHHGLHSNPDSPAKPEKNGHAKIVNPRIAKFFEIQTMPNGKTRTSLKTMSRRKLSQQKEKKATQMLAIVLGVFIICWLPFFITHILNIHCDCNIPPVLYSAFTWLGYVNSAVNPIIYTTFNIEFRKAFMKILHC

On to `C=CCN1CC[C@@H]2Cc3c(cccc3OC)C[C@@H]21` (racemic), for which, on D(2) dopamine receptor [1], the inhibitory constant (Ki) was found to be 429 nM.

Regarding `C=CCN1CC[C@H]2Cc3c(O)cccc3C[C@@H]21`, the Intrinsic activity on D(2) dopamine receptor [2] amounted to 21%. The Ki was 235 nM at D(2) dopamine receptor [3] and 47 nM at D(2) dopamine receptor [1]. Further, the Locomotor activity in the experiment on Mus musculus [4] was found to be 121; in the experiment with Mus musculus [5], 109; in the experiment with Mus musculus [6], 84; in the experiment with Mus musculus [7], 119; in the experiment with Mus musculus [8] it was 119; in the experiment with Mus musculus [9] it was 1. For the same compound, the Locomotor activity is given as 113 with Mus musculus [10]; 45 in the experiment on Mus musculus [11]; 77 in the experiment with Mus musculus [12]; 103 in the experiment with Mus musculus [13]; 81 with Mus musculus [14]; 86 with Mus musculus [15]. This compound also came in with an ED50 in the experiment with Rattus norvegicus of 0.94 µmol/kg.

`CCCN1CC[C@@H]2Cc3c(cccc3OC)C[C@@H]21` (racemic): the IC50 against D(2) dopamine receptor [16] is > 1000 nM.

On D(2) dopamine receptor [1], `COc1cccc2c1C[C@H]1CCN(CC3CC3)[C@H]1C2` (racemic) yielded a Ki of 748 nM.

On to `CC(N)Cc1ccccc1.O=S(=O)(O)O` (stereo unspecified) [AMPHETAMINE SULFATE], for which the Time in the experiment listed under Mus musculus [17] is reported as 2.6 s; in the experiment on Mus musculus [18] it was 2.4 s; in the experiment with Mus musculus [19], 2.9 s.

In the case of `COc1cccc2c1C[C@H]1CCN[C@H]1C2` (racemic), the IC50 at D(2) dopamine receptor [16] was > 1000 nM.

With `COc1cccc2c1C[C@H]1CCN(CC3CC3)[C@@H]1C2` (racemic), on D(2) dopamine receptor [20], the inhibition constant Ki was > 1000 nM. For the same compound, the results for the median effective dose (ED50) in the experiment with Mus musculus [21] and with Mus musculus [22] were 19 µmol/kg and 25 µmol/kg, respectively. Besides, the Time in the experiment on Mus musculus [23] worked out at 1.5 s; in the experiment with Mus musculus [24] it was 1 s; in the experiment with Mus musculus [25], 0.9 s; with Mus musculus [26], 177 s; in the experiment on Mus musculus [29], 58 s; in the experiment with Mus musculus [30], 1.6 s. The Max temperature decrease is 7 in the experiment on Mus musculus [27] and 6.2 in the experiment on Mus musculus [28].

`CCCN1CC[C@@H]2Cc3c(cccc3OC)C[C@H]21` displayed a Ki at D(2) dopamine receptor [3] of 75 nM. Also, the IC50 against D(2) dopamine receptor [16] is > 1000 nM. Besides, the Locomotor activity in the experiment on Mus musculus [4] is on record as 20; in the experiment on Mus musculus [31], 18; in the experiment with Mus musculus [32] it was 21; with Mus musculus [7], 30; in the experiment with Mus musculus [33], 12; in the experiment with Mus musculus [34], 851. Moreover, the Locomotor activity in the experiment on Mus musculus [35] is reported as 308; in the experiment with Mus musculus [11], 581; in the experiment on Mus musculus [36] it was 14; in the experiment on Mus musculus [37] it was 20; in the experiment on Mus musculus [14], 86; in the experiment on Mus musculus [38] it was 72.

On to `COc1cccc2c1C[C@H]1CCN(Cc3ccccc3)[C@H]1C2` (racemic), for which the Ki at D(2) dopamine receptor [1] stood at 465 nM.

Turning to `COc1cccc2c1C[C@H]1CCN(Cc3ccccc3)[C@@H]1C2` (racemic), the Ki at D(2) dopamine receptor [1] was > 10000 nM.

Consider `C=CCN1CC[C@@H]2Cc3cccc(OC)c3C[C@H]21` (racemic), for which the 50% inhibitory concentration (IC50) on D(2) dopamine receptor [16] is > 1000 nM.
